# Target: T1, ULK1 kinase (Homo sapiens, UniProt O75385, E37A/K38A)
# T1 construct: purchased Beryllium
# T1 sequence (O75385 1-283 E37A/K38A): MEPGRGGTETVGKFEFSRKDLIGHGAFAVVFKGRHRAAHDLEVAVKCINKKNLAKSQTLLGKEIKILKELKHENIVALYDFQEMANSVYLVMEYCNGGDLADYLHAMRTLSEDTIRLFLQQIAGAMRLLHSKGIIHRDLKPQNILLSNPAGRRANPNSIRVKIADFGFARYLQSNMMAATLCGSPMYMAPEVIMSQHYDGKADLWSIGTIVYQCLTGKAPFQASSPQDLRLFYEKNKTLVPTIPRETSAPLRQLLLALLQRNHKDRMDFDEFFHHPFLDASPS
# Assay: Biochemical assay for ULK1.3 (coupled pyruvate kinase/lactate dehydrogenase assay, peptide substrate)
# Settings: 0.1 nM ULK1 (residues 1-283), 1 mM ATP
# Procedure: Biochemical Assay for ULK1.3 (SEQ. ID NO: 2)
# Inhibition of ULK1 was measured by adding serial diluted test compound (final assay concentration of 1% DMSO). A decrease in absorption at 340 nm was monitored continuously for 6 hours at 30° C. on a multi-mode microplate reader (BioTek). The reaction rate was calculated using the 2-3 h time frame. The reaction rate at each concentration of compound was converted to percent inhibition using controls (i.e. reaction with no test compound and reaction with a known inhibitor) and IC50 values were calculated using software routines in Prism (GraphPad software).
smiles,measurement,value
CC(C)c1cc(N2CCN(C)CC2)ccc1Nc1ncc(Br)c(NCCCN2CCCCC2=O)n1 [Example 15],IC50,25 to 100 nM
CN1CCCN(c2ccc(Nc3ncc(C(F)(F)F)c(NCCCN4CCCCC4=O)n3)c(C3CC3)c2)CC1 [Example 24],IC50,1 to 25 nM
CCN1CCN(c2ccc(Nc3ncc(Cl)c(NCCCN4CCCCC4=O)n3)c(C(C)C)c2)CC1 [Example 29],IC50,100 to 500 nM
CN1CCN(c2ccc(Nc3ncc(C(F)(F)F)c(NCCCN4CCCCCC4=O)n3)c(C3CC3)c2)CC1 [Example 38],IC50,1 to 25 nM
CCc1cc(N2CCN(C)CC2)ccc1Nc1ncc(Cl)c(NCCCN2CCCOC2=O)n1 [Example 43],IC50,25 to 100 nM
CCc1cc(N2CCN(C)CC2)ccc1Nc1ncc(C2CC2)c(NCCCN2CCCOC2=O)n1 [Example 45],IC50,100 to 500 nM
CCc1cc(N2CCN(C)CC2)ncc1Nc1ncc(C(F)(F)F)c(NCCCN2CCCOCC2=O)n1 [Example 53],IC50,25 to 100 nM
CCc1cc(N2CCCN(C)CC2)ccc1Nc1ncc(C(F)(F)F)c(NCCCN2CCCOCC2=O)n1 [Example 63],IC50,25 to 100 nM
CC(C)c1cc(N2CCN(C)CC2)ccc1Nc1ncc(Br)c(NCCCN2CCCOCC2=O)n1 [Example 77],IC50,25 to 100 nM
CCc1cc(N2CCN(C)CC2)ccc1Nc1ncc(C2CC2)c(NCCCN2CCOCCC2=O)n1 [Example 83],IC50,> 500 nM
O=C1CCOCCN1CCCNc1nc(Nc2ccc(N3CCNCC3)cc2C2CC2)ncc1Cl [Example 89],IC50,100 to 500 nM
CN1CCN(c2ccc(Nc3cc(NCCCN4CCCCC4=O)c(C(F)(F)F)cn3)c(C3CC3)c2)CC1 [Example 94],IC50,25 to 100 nM
"CN1CCN(c2ccc(Nc3cc(NCCCN4CCCCC4=O)c(C(F)(F)F)cn3)nc2)CC1 [Example 97, 1-(3-((2-((5-(4-methylpiperazin-1-yl)pyridin-2-yl)amino)-5-(trifluoromethyl)pyridin-4-yl)amino)propyl)piperidin-2-one]",IC50,100 to 500 nM
CN1CCN(c2ccc(Nc3cc(NCCCN4CCOCCC4=O)c(Cl)cn3)c(C3CC3)c2)CC1 [Example 104],IC50,100 to 500 nM
CCc1cc(N2CCN3CCC[C@H]3C2)ccc1Nc1ncc(C(F)(F)F)c(NCCCN2CCCOC2=O)n1 [Example 121],IC50,1 to 25 nM
CCc1cc(N2CCN(C)CC2)ncc1Nc1ncc(C(F)(F)F)c(NCCCN2CCCOC2=O)n1 [Example 128],IC50,1 to 25 nM
CN1C2CCC1CN(c1ccc(Nc3ncc(C(F)(F)F)c(NCCCN4CCOCCC4=O)n3)c(C3CC3)c1)C2 [Example 133],IC50,100 to 500 nM
CN1CCN(c2ccc(Nc3ncc(C(F)(F)F)c(NCCCN4CCOCCC4=O)n3)c(C(C)(C)O)c2)CC1 [Example 134],IC50,> 500 nM
CN1CCN(c2ccc(Nc3ncc(C(F)(F)F)c(NCCCN4CCCOC4=O)n3)c(C(C)(C)O)c2)CC1 [Example 135],IC50,100 to 500 nM
CN(C)C1CN(c2ccc(Nc3ncc(C(F)(F)F)c(NCCCN4CCOCCC4=O)n3)c(C3CC3)c2)C1 [Example 136],IC50,1 to 25 nM
CCc1cc(N2CC3CCC(C2)N3C)ccc1Nc1ncc(C(F)(F)F)c(NCCCN2CCCOCC2=O)n1 [Example 138],IC50,100 to 500 nM
CCc1cc(N2CC3CCC(C2)N3C)ccc1Nc1ncc(C(F)(F)F)c(NCCCN2CC(C)(C)C2=O)n1 [Example 139],IC50,> 500 nM
CCc1cc(N2CC3CCC(C2)N3C)ccc1Nc1ncc(C(F)(F)F)c(NCCCN2CCC(C)(C)OC2=O)n1 [Example 140],IC50,100 to 500 nM
CCc1cc(N2CCN(C)CC2)ccc1Nc1ncc(C(F)(F)F)c(NCCCN2CC(C)(C)C2=O)n1 [Example 141],IC50,25 to 100 nM
CCc1cc(N2CCN(C)CC2)ccc1Nc1ncc(C(F)(F)F)c(NCCCN2CCOCC(C)(C)C2=O)n1 [Example 142],IC50,1 to 25 nM
CCc1cc(C2CCN(C)C2)ccc1Nc1ncc(C(F)(F)F)c(NCCCN2CCOCCC2=O)n1 (stereo not shown) [Example 143],IC50,1 to 25 nM
CCc1cc(N2CC[C@@H](N(C)C)C2)ccc1Nc1ncc(C(F)(F)F)c(NCCCN2CCOCCC2=O)n1 [Example 144],IC50,1 to 25 nM
CCc1cc(N2CC[C@H](N(C)C)C2)ccc1Nc1ncc(C(F)(F)F)c(NCCCN2CCOCCC2=O)n1 [Example 145],IC50,1 to 25 nM

# Reference: patent US11530206B2, “Phenylaminopyrimidine amide autophagy inhibitors and methods of use thereof” (Deciphera Pharmaceuticals, LLC, priority 2019, dated 2022)
